Assays:
[1] = target: T1, Aurora kinase A (Homo sapiens) (UniProt O14965); assay: Inhibition of human Aurora A at 1.82 nM by HotSpot assay relative to control
T1 sequence (whole entry): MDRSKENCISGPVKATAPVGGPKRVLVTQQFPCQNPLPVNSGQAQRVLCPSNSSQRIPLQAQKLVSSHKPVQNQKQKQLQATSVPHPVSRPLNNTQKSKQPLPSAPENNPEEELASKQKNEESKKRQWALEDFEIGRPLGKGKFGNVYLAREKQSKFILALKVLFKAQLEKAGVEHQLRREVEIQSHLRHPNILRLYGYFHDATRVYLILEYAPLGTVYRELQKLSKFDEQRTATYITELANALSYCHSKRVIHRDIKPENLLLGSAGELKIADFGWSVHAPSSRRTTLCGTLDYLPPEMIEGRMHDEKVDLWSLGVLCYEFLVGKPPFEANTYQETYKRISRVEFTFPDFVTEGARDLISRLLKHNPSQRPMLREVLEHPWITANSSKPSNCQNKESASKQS

[2] = target: T2, Mitogen-activated protein kinase kinase kinase 2 (Homo sapiens) (UniProt Q9Y2U5); assay: Inhibition of human MEKK2 at 1.82 nM by HotSpot assay relative to control
T2 sequence (whole entry): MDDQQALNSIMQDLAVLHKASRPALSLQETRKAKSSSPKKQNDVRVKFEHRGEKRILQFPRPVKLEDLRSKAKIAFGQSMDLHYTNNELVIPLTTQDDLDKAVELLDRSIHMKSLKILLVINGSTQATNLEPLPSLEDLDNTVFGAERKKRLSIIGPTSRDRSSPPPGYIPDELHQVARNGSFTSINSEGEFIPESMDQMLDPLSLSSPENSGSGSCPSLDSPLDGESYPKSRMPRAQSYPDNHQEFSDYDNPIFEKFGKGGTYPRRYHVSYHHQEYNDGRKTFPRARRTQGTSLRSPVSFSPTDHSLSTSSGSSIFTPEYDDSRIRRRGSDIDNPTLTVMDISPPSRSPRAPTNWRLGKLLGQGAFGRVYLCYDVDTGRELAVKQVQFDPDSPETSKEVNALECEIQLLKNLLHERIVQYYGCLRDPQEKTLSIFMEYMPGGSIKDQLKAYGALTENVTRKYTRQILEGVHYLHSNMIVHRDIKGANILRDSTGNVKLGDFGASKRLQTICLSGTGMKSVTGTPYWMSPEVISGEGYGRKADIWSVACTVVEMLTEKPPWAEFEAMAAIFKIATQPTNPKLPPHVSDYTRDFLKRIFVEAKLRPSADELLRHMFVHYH

[3] = target: Maternal embryonic leucine zipper kinase (Homo sapiens) (UniProt Q14680); assay: Inhibition of human MELK at 1.82 nM by HotSpot assay relative to control
[4] = target: Ribosomal protein S6 kinase alpha-2 (Homo sapiens) (UniProt Q15349); assay: Inhibition of human RSK3 at 1.82 nM by HotSpot assay relative to control
[5] = target: PAS domain-containing serine/threonine-protein kinase (Homo sapiens) (UniProt Q96RG2); assay: Inhibition of human PASK at 1.82 nM by HotSpot assay relative to control
[6] = target: Mitogen-activated protein kinase kinase kinase 20 (Homo sapiens) (UniProt Q9NYL2); assay: Inhibition of human MLTK at 1.82 nM by HotSpot assay relative to control
[7] = target: G protein-coupled receptor kinase 4 (Homo sapiens) (UniProt P32298); assay: Inhibition of human GRK4 at 1.82 nM by HotSpot assay relative to control
[8] = target: T3, Dual serine/threonine and tyrosine protein kinase (Homo sapiens) (UniProt Q6XUX3); assay: Inhibition of human RIPK5 at 18.6 nM by HotSpot assay relative to control
T3 sequence (whole entry): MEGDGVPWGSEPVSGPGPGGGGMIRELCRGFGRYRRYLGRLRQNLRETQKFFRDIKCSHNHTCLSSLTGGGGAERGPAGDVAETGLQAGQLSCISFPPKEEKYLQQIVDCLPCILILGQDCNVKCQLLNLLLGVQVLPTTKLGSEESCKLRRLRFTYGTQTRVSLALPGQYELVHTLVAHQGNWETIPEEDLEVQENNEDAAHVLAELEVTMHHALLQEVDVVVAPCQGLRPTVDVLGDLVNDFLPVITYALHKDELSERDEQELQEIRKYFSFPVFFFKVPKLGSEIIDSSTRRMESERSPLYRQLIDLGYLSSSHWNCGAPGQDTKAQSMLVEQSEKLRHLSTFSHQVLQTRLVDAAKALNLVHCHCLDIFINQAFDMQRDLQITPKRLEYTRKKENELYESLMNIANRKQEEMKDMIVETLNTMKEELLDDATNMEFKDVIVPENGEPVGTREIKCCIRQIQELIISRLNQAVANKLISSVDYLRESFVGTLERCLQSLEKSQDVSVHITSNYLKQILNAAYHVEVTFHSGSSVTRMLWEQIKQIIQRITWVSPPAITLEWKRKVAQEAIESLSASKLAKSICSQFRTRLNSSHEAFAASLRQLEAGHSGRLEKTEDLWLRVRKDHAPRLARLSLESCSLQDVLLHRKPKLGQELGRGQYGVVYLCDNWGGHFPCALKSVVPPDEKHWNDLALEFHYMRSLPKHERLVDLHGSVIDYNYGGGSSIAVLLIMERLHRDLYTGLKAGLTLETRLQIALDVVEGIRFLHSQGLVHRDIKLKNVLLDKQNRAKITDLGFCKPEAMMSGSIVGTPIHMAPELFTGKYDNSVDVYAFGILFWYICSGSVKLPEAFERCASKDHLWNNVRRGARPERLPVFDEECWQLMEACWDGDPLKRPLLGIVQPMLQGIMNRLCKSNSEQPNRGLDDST

[9] = target: T4, Megakaryocyte-associated tyrosine-protein kinase (Homo sapiens) (UniProt P42679); assay: Inhibition of human CTK at 18.6 nM by HotSpot assay relative to control
T4 sequence (whole entry): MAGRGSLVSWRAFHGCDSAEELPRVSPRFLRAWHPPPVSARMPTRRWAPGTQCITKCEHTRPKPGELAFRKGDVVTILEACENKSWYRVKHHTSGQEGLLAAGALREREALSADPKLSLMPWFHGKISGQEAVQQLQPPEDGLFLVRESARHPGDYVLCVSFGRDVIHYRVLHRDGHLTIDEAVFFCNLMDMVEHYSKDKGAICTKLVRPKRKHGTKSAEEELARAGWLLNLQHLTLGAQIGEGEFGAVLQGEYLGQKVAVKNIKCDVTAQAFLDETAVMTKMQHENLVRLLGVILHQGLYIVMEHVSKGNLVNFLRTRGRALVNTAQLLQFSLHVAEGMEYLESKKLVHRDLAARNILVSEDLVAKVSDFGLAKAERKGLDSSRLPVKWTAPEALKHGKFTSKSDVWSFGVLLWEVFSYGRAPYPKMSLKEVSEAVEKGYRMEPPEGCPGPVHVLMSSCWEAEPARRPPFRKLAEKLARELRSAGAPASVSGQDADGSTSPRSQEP

G protein-coupled receptor kinase 4 (Homo sapiens), sequence (P32298 whole entry, looked up): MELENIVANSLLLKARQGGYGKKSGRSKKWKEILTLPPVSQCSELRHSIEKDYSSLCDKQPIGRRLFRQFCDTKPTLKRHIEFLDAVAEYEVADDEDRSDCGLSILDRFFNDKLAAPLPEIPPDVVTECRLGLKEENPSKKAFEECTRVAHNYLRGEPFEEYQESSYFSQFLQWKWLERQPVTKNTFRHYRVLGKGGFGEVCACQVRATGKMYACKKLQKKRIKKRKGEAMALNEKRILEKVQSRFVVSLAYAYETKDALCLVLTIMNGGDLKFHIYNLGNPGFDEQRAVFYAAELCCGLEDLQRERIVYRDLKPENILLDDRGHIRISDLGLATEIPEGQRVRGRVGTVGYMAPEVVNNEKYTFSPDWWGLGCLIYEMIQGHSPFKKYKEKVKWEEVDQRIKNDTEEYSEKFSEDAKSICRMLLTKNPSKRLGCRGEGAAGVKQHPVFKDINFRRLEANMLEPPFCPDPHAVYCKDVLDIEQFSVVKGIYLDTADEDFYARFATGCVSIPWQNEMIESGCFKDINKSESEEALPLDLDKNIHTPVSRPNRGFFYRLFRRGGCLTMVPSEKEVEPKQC
Maternal embryonic leucine zipper kinase (Homo sapiens), sequence (Q14680 whole entry, looked up): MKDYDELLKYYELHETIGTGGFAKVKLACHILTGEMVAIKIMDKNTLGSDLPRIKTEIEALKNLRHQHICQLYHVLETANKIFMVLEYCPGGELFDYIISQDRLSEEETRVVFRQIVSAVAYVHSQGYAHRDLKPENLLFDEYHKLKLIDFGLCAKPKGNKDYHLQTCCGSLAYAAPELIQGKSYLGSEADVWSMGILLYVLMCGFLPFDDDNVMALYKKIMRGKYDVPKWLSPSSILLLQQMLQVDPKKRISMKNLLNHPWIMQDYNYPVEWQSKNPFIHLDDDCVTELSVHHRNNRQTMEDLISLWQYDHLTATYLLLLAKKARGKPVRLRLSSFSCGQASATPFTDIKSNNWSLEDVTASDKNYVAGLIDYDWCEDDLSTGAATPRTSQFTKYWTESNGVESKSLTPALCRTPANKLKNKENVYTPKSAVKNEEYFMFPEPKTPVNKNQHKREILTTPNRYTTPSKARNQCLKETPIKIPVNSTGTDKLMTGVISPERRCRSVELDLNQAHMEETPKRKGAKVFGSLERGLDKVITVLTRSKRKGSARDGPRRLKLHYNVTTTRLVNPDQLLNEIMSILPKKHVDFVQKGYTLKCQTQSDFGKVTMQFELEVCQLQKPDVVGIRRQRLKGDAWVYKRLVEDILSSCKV
Ribosomal protein S6 kinase alpha-2 (Homo sapiens), sequence (Q15349 whole entry, the tested form may be a part): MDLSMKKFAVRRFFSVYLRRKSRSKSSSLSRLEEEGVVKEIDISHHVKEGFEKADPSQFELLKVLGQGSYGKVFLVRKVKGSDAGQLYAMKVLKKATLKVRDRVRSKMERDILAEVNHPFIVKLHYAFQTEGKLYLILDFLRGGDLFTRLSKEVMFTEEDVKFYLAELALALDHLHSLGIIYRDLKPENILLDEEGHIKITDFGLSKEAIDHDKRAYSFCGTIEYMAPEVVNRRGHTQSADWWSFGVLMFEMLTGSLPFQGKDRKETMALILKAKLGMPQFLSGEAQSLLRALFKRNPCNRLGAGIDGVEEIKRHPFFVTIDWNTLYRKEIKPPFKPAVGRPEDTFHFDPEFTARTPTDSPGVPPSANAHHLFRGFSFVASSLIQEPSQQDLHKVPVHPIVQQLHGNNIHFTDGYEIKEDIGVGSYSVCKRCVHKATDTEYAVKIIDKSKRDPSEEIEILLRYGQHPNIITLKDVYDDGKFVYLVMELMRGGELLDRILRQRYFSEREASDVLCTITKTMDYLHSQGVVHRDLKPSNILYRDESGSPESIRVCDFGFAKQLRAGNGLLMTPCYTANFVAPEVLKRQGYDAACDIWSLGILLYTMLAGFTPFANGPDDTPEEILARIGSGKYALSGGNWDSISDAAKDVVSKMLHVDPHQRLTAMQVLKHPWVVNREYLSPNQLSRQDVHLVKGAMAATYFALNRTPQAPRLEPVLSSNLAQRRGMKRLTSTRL
PAS domain-containing serine/threonine-protein kinase (Homo sapiens), sequence (Q96RG2 whole entry, the tested form may be a part): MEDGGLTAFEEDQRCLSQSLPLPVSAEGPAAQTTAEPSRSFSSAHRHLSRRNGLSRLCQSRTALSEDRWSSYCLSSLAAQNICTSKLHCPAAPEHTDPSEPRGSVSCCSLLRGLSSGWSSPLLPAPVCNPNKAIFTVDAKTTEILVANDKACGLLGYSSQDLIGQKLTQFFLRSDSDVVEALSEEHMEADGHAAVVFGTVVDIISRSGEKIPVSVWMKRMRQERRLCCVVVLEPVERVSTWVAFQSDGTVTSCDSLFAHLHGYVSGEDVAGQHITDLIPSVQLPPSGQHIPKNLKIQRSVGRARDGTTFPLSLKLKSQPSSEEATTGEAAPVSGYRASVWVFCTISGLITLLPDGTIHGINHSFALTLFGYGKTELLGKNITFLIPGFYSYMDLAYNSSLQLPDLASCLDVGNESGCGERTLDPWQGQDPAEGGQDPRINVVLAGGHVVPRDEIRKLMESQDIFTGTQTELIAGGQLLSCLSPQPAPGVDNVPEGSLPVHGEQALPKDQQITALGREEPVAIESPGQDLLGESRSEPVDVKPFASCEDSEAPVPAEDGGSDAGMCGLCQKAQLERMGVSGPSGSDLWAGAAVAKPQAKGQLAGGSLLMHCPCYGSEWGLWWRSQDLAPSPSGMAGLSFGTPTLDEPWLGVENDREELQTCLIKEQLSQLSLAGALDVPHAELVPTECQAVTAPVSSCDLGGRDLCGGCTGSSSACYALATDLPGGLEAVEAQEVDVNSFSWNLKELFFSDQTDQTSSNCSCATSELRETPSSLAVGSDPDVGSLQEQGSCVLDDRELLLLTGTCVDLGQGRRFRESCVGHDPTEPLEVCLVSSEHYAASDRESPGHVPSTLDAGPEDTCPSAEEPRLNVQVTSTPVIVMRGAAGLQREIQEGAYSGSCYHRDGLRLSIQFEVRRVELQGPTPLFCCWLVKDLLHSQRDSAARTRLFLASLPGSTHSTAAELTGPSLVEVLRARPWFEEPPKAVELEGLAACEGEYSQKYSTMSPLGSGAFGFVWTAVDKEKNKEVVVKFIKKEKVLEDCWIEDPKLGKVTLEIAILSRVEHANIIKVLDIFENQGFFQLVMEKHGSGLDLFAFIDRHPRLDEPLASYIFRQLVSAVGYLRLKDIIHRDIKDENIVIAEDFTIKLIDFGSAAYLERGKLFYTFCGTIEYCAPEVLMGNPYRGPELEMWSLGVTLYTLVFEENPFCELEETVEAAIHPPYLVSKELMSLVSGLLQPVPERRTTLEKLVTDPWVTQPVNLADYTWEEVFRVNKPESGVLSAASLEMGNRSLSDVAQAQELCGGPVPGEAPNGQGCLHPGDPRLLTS
Mitogen-activated protein kinase kinase kinase 20 (Homo sapiens), sequence (Q9NYL2 2-800 limits assumed): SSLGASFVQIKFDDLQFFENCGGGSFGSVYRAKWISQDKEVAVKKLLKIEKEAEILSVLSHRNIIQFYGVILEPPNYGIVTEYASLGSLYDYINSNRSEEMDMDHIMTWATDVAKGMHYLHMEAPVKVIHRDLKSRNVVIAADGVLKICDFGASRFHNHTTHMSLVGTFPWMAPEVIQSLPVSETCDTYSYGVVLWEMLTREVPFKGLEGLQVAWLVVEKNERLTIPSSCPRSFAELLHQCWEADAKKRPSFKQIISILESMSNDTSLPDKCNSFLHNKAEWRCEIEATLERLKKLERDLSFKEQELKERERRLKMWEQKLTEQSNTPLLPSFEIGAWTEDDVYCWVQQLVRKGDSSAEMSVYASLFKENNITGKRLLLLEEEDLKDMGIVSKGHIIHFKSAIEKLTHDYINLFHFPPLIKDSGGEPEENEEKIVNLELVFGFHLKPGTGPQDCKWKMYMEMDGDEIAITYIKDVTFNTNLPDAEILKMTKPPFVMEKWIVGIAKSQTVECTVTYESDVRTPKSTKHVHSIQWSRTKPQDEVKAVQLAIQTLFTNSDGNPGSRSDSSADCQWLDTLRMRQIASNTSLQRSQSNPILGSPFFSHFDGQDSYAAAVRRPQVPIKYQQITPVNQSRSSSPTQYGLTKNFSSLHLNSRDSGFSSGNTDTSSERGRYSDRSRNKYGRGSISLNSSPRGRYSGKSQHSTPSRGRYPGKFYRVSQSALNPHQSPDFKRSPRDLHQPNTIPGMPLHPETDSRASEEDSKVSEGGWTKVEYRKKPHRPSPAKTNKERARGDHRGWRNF

With C[C@@]1(C(=O)Nc2ccc(F)nc2)CCCN1c1nc(Nc2cc(C3CC3)n[nH]2)c2cccn2n1 the inhibition [1] was 30%, the inhibition [2] was -7.18% and the inhibition [3] was 1.63%. The inhibition [4] was -2.19%, the inhibition [5] was -2.46% and the inhibition [6] was 2.09%. The inhibition [7] was 0.72%.
C[C@]1(O)C[C@@H](c2nc(-c3ccc4ccc(-c5ccccc5)nc4c3)c3c(N)nccn32)C1 was tested, and the inhibition [8] was -0.63% and the inhibition [9] was -2.07%.

Reference: ChEMBL document CHEMBL5653615 (J Biol Chem, 2013)
